The values below come from US20100267635A1, “USE OF PROTEASE INHIBITORS AND GRF MOLECULES IN COMBINATION THERAPY” (THERATECHONOLGIES INC., priority 2009, published 2010).

The Cmax is the maximum level reached in the sampled fluid or tissue. As usually defined, the Tmax is the time at which the peak concentration occurs.

For one data set, the system named is CYP3A. The data set is described as follows: Impact of TH9507 on CYP3A activity, concluded from the ritonavir PK interaction study. The class given is in vivo, human. The following applies: 2 mg TH9507 s.c. days 1 to 7, ritonavir as probe. From the text:
(§1) The 90% CIs for the Treatment A/Treatment B LSM ratios for AUC0-t.

Data set [1] in a line: Plasma TH9507 PK (ELISA) on day 6 in the ritonavir interaction study. The class given is in vivo. The following applies: both sexes, human, sc, 2 mg s.c. once daily. Here is the method:
(§2) 2 ml of TH9507 (1 mg/ml injectable solution) was administered by subcutaneous injection under fasting conditions once daily for 7 consecutive days (daily dose of 2 mg TH9507).
(§3) N=32 healthy adult (male and female) subjects were enrolled. Dosing occurred in two groups.
(§4) PK/statistics: PK parameters were calculated using standard noncompartmental approaches.

The nature of data set [2]: Two-way crossover drug interaction study: plasma ritonavir PK with (Treatment A) and without (Treatment B) TH9507. The class given is in vivo, human. The method, then:
as §2, §3, §4, §1

The structures appear in SMILES notation.

In the case of `CC/C=C/CC(=O)N[C@@H](Cc1ccc(O)cc1)C(=O)N[C@@H](C)C(=O)N[C@@H](CC(=O)O)C(=O)N[C@@H](C)C(=O)N[C@H](C(=O)N[C@@H](Cc1ccccc1)C(=O)N[C@H](C(=O)N[C@@H](CC(N)=O)C(=O)N[C@@H](CO)C(=O)N[C@@H](Cc1ccc(O)cc1)C(=O)N[C@@H](CCCNC(=N)N)C(=O)N[C@@H](CCCCN)C(=O)N[C@H](C(=O)N[C@@H](CC(C)C)C(=O)NCC(=O)N[C@@H](CCC(N)=O)C(=O)N[C@@H](CC(C)C)C(=O)N[C@@H](CO)C(=O)N[C@@H](C)C(=O)N[C@@H](CCCNC(=N)N)C(=O)N[C@@H](CCCCN)C(=O)N[C@@H](CC(C)C)C(=O)N[C@@H](CC(C)C)C(=O)N[C@@H](CCC(N)=O)C(=O)N[C@@H](CC(=O)O)C(=O)N[C@H](C(=O)N[C@@H](CCSC)C(=O)N[C@@H](CO)C(=O)N[C@@H](CCCNC(=N)N)C(=O)N[C@@H](CCC(N)=O)C(=O)N[C@@H](CCC(N)=O)C(=O)NCC(=O)N[C@@H](CCC(=O)O)C(=O)N[C@@H](CO)C(=O)N[C@@H](CC(N)=O)C(=O)N[C@@H](CCC(N)=O)C(=O)N[C@@H](CCC(=O)O)C(=O)N[C@@H](CCCNC(=N)N)C(=O)NCC(=O)N[C@@H](C)C(=O)N[C@@H](CCCNC(=N)N)C(=O)N[C@@H](C)C(=O)N[C@@H](CCCNC(=N)N)C(=O)N[C@@H](CC(C)C)C(N)=O)[C@@H](C)CC)C(C)C)[C@@H](C)O)[C@@H](C)CC` [TH9507, (hexenoyl trans-3)hGRF(1-44)NH2], the “impact on CYP3A activity” value in the data set with CYP3A is “not significant”. The molecule further showed a half-life in data set [1] (arithmetic mean) of 6.6 min. In data set [1] (geometric mean), this molecule registered an AUC(0-inf) of 0.79 ng·h/mL, an AUC(0-t) of 0.657 ng·h/mL and a Cmax of 2.7 ng/mL. The Tmax in data set [1] (median) was 9 min.

In data set [2] (both sexes, human, plasma, oral, 100 mg), `CC(C)c1nc(CN(C)C(=O)N[C@H](C(=O)N[C@@H](Cc2ccccc2)C[C@H](O)[C@H](Cc2ccccc2)NC(=O)OCc2cncs2)C(C)C)cs1` [Ritonavir, 1,3-thiazol-5-ylmethyl N-[(2S,3S,5S)-3-hydroxy-5-[(2S)-3-methyl-2-{[methyl({[2-(propan-2-yl)-1,3-thiazol-4-yl]methyl})carbamoyl]amino}butanamido]-1,6-diphenylhexan-2-yl]carbamate] registered a Cmax of 453 ng/mL. For the same molecule, the AUC(0-inf) in data set [2] (both sexes, human, plasma, oral, 100 mg, read-out: AUC0-inf Treatment B) came to 3800 ng·h/mL. Besides, in data set [2] (both sexes, human, plasma, oral, 100 mg, read-out: AUC0-t Treatment B), the AUC(0-t) is 3720 ng·h/mL. For the same molecule, in data set [2] (both sexes, human, plasma, oral, 100 mg, read-out: T1/2 Treatment B (converted)), the half-life was 6.26 h. The Tmax in data set [2] (both sexes, human, plasma, oral, 100 mg, read-out: Tmax Treatment B) came to 4.5 h; in data set [2] (both sexes, human, plasma, oral, read-out: Tmax Treatment A), 4.5 h. In data set [2] (plasma ritonavir, with TH9507, arithmetic mean (% CV)), the “T1/2 Treatment A” value is 5.72 (23.0) h.
